Experiment [1] has as its system HOS (human osteogenic sarcoma). The experiment can be described thus: Calcein AM cytotoxicity assay, HOS. It is filed as cell-based. The settings on record: 72 hours incubation. The text has this: (§1) Because toxic compounds negatively influence metabolic processes in cells, many standard cytotoxicity assays are based on measurement of metabolisation rate of various artificial substrates. Resulting product is then quantified e.g. by means of spectrometry. The assays can be easily modified for use in 96-well plates. For evaluation of cytotoxic effect of the novel substituted 9-substituted cytokinin derivatives of this invention, a microtiter assay based on quantification of metabolisation of Calcein AM was used. The assay is widely used in drug screening programs and in chemosensitivity testing. In the living cells, Calcein AM is enzymatically hydrolysed and accumulation of resulting calcein is manifested by green fluorescence.
(§2) In the routine screening the following cell lines have been used: CEM (T-lymphoblastoid leukemia), HL-60 (promyelocytic leukemia), K-562 (human erythroleukemia), MCF-7 (breast carcinoma), HOS (human osteogenic sarcoma), and G-361 (human malignant melanoma). Normal human fibroblasts BJ were used as a control for routine screening of the compounds. The cells were kept in Nunc/Corning 80 cm^2 plastic bottles and grown in cell culture medium (DMEM containing 5 g/l glucose, 2 mM glutamine, 100 U/ml penicilline, 100 μg/ml streptomycine, 10% fetal bovine serum and sodium hydrogencarbonate), the compounds were prepared according to the procedure of the present invention.
(§3) The cell suspensions were prepared and diluted according to the particular cell type and the expected target cell density (2.500-30.000 cells per well based on cell growth characteristics) and pippetted (80 μl) into 96-well plates. Inoculates were allowed a pre-incubation period of 24 hours at 37° C. and 5% CO2 for stabilisation. Tested compound was added in total volume of 20 μl of water at time zero. Usually, test compound was evaluated at six 3-fold dilutions. In routine testing, the highest concentration tested was 166.7 μM. All drug concentrations were tested in triplicates. Incubations of cells with the test compounds lasted for 72 hours at 37° C., in 5% CO2 atmosphere and 100% humidity. At the end of incubation period Calcein AM in PBS was added into final concentration of 1 μg/ml. After another 1 hour of incubation fluorescence (FD) was measured with the Labsystem FIA Reader Fluoroscan Ascent (Microsystems). Tumor cell survival (TCS) was estimated using the following equation: […]=(FDdrug exposed well/FDcontrol well)×100%. The GI50 value, the drug concentration causing 50% reduction of esterase activity, was calculated from the obtained dose response curves (FIG. 1).
(§4) Cytoxicity of novel compounds was tested on panel of cell lines of different histogenetic and species origin (Table 3). […] The effective novel derivatives killed tumour cells in concentrations close to 0.1-50 μM.

Experiment [2] concerns K-562 (human erythroleukemia). In words: Calcein AM cytotoxicity assay, K-562. It is filed as cell-based.
Text: as §1, §2, §3, §4

The subject of the next experiment is MCF-7 (breast carcinoma). The experiment can be described thus: Calcein AM cytotoxicity assay, MCF7. It is filed as cell-based. The settings on record: 72 hours incubation.
Text: as §1, §2, §3, §4

Experiment [3] deals with Normal human fibroblasts BJ. The experiment can be described thus: Calcein AM cytotoxicity assay, BJ. The settings on record: 72 hours incubation. Format: cell-based.
Text: as §1, §2, §3, §4

The test system of experiment [4] is G-361 (human malignant melanoma). The experiment can be described thus: Calcein AM cytotoxicity assay, G-361. Format: cell-based. The settings on record: 72 hours incubation.
Text: as §1, §2, §3, §4

Experiment [5] deals with CEM (T-lymphoblastoid leukemia). The experiment can be described thus: Calcein AM cytotoxicity assay, CEM. Format: cell-based. Particulars: 72 hours incubation, Calcein AM.
Text: as §1, §2, §3, §4

Experiment [6] relates to HL-60 (promyelocytic leukemia). The experiment can be described thus: Calcein AM cytotoxicity assay, HL60. It is filed as cell-based, human.
Text: as §1, §2, §3, §4

The next experiment relates to Human lymphocytes. The experiment can be described thus: Immunosuppressive activity, 3H-thymidine incorporation in concanavalin A activated lymphocytes. Particulars: 72 hours, [3H]-TdR incorporation, read-out: Human lymphocytes ED50. It is filed as cell-based. The text has this: One of the most important parameters of specific cellular immunity is the proliferative response of lymphocytes to antigens or polyclonal mitogens. The majority of normal mammalian peripheral lymphocytes comprise resting cells. Antigens or nonspecific polyclonal mitogens have the capacity to activate lymphoid cells and this is accompanied by dramatic changes of intracellular metabolism (mitochondrial activity, protein synthesis, nucleic acids synthesis, formation of blastic cells and cellular proliferation). […] Variety of in vitro assays was developed to measure proliferative response of lymphocytes. The most commonly used is ^3H-thymidine incorporation method.
During cell proliferation, DNA has to be replicated before the cell is divided into two daughter cells. This close association between cell doublings and DNA synthesis is very attractive for assessing cell proliferation. If labelled DNA precursors are added to the cell culture, cells that are about to divide incorporate the labelled nucleotide into their DNA. Traditionally, those assays usually involve the use of radiolabelled nucleosides, particularly tritiated thymidine ([^3H]-TdR). The amount of [^3H]-TdR incorporated into the cellular DNA is quantified by liquid scintillation counting.
Human heparinized peripheral blood was obtained from healthy volunteers by cubital vein punction. The blood was diluted in PBS (1:3) and mononuclear cells were separated by centrifugation in Ficoll-Hypaque density gradient (Pharmacia, 1.077 g/ml) at 2200 rpm for 30 minutes. Following centrifugation, lymphocytes were washed in PBS and resuspended in cell culture medium (RMPI 1640, 2 mM glutamine, 100 U/ml penicillin, 100 μg/ml streptomycin, 10% fetal calf serum and sodium bicarbonate).
The cells were diluted at target density of 1.100.000 cells/ml and were added by pipette (180 μl) into 96-well microtiter plates. Four-fold dilutions of the intended test concentration were added at time zero in 20 μl aliquots to the microtiter plate wells. Usually, test compound was evaluated at six 4-fold dilutions. In routine testing, the highest well concentration was 266.7 μM. All drug concentrations were examined in duplicates. All wells with exception of unstimulated controls were activated with 50 μl of concanavalin A (25 μg/ml). Incubations of cells with test compounds lasted for 72 hours at 37° C., in 5% CO2 atmosphere and 100% humidity. At the end of incubation period, the cells were assayed by using the [^3H]-TdR:
Cell cultures were incubated with 0.5 μCi (20 μl of stock solution 500 μCi/ml) per well for 6 hours at 37° C. and 5% CO2. The automated cell harvester was used to lyse cells in water and adsorb the DNA onto glass-fiber filters in the format of microtiter plate. The DNA incorporated [^3H]-TdR was retained on the filter while unincorporated material passes through. The filters were dried at room temperature overnight, sealed into a sample bag with 10-12 ml of scintillant. The amount of [^3H]-TdR present in each filter (in cpm) was determined by scintillation counting in a Betaplate liquid scintillation counter. The effective dose of immunosuppressant (ED) was calculated using the following equation: ED=(CCPMdrug exposed well/mean CCPMcontrol wells)×100%. The ED50 value, the drug concentration inhibiting proliferation of 50% of lymphocytes, was calculated from the obtained dose response curves.
To evaluate immunosuppressive activity of substituted adenines, their ability to inhibit polyclonal mitogen induced proliferation of normal human lymphocytes was analyzed (Table 4). […] Effective immunosuppressive dose of new derivatives under in vitro conditions was close to 10-40 μM.

Experiment [7] has as its system cytokinin-dependent tobacco callus Nicotiana tabacum L. cv. Wisconsin 38. The experiment can be described thus: Growth of cytokinin-dependent tobacco callus. Format: cell-based. The settings on record: for Activity (%) [10^−5 mol · l^−1 KR = 100%]: at concentration with highest activity, relative to control cytokinin; for Concentration with highest activity: tobacco callus fresh weight after four weeks. Here is the method: Cytokinin effect of newly prepared derivatives was tested using cytokinin-dependent tobacco callus. The cytokinin-dependent tobacco callus Nicotiana tabacum L. cv. Wisconsin 38 was maintained at 25° C. in darkness on modified MS medium, containing per 1 liter: 4 μmol of nicotinic acid, 2.4 μmol of pyridoxine hydrochloride, 1.2 μmol of thiamine, 26.6 μmol of glycine, 1.37 μmol of glutamine, 1.8 μmol of myo-inositol, 30 g of sucrose, 8 g of agar, 5.37 μmol of NAA and 0.5 μmol of the compound tested. Subcultivation was carried out every three weeks. Fourteen days before the bioassay, the callus tissue was transferred to the media without 6-benzylaminopurine. The biological activity was determined from the increase of the fresh callus weight after four weeks of cultivation. Five replicates were prepared for each concentration of the compound tested and the entire test was repeated twice. […] The compounds to be tested were dissolved in dimethylsulfoxide (DMSO) and the solution brought up to 10^−3 M with distilled water. […] The stimulatory activity was calculated from the dose-dependent fresh weight callus growth curves.
From the obtained data, the concentration with the highest activity was selected for each compound tested. Relative activity of the compound at this concentration was calculated (Table 5). […]

SMILES strings stand for the structures.

`O=P(O)(O)OC[C@H]1O[C@@H](n2cnc3c(NCc4cc(F)ccc4O)ncnc32)[C@H](O)[C@@H]1O` [Compound 48, 6-(2-hydroxy-5-fluorobenzylamino)purine riboside-5′-monophosphate]: the GI50 is 9.1 µM in experiment [1]; 13.4 µM in [2] (72 hours incubation); 16 µM in the experiment on MCF-7 (breast carcinoma); 58.7 µM in experiment [3]; 10.7 µM in experiment [4]; 0.5 µM in experiment [5]. The 50% growth inhibitory concentration (GI50) in experiment [6] (72 hours incubation) was 0.53 µM.
Take `C/C(=C\CNc1ncnc2c1ncn2[C@@H]1O[C@H](CO)[C@@H](O)[C@H]1O)CO` [zeatin riboside, reference compound]: the GI50 (in experiment [1]; in [2] (72 hours incubation); in the experiment with MCF-7 (breast carcinoma); in [3]; in experiment [4]; in [5]) was above 167 µM each time. In addition, in experiment [6] (72 hours incubation), the GI50 is above 167 µM.
Consider `Nc1ncnc2c1ncn2[C@@H]1O[C@H](CO)[C@@H](O)[C@H]1O` [adenosine], for which the GI50 was above 167 µM in experiment [1] (Homo sapiens); above 167 µM in experiment [2] (Homo sapiens, K562, 72 hours incubation); above 167 µM in the experiment with MCF-7 (breast carcinoma) (Homo sapiens); above 167 µM in experiment [3] (Homo sapiens, Fibroblast); above 167 µM in [4] (Homo sapiens); above 167 µM in [5]. Moreover, the GI50 in experiment [6] (Homo sapiens, HL-60, 72 hours incubation) was above 167 µM.
Consider `COc1ccc(O)c(CNc2ncnc3c2ncn3[C@@H]2O[C@H](COP(=O)(O)O)[C@@H](O)[C@H]2O)c1` [Compound 29, 6-(2-hydroxy-5-methoxybenzylamino)purine riboside-5′-monophosphate], for which the GI50 was 6.4 µM in experiment [1]; 15.4 µM in [2] (72 hours incubation); 21 µM in the experiment with MCF-7 (breast carcinoma); 87.9 µM in experiment [3]; 12.3 µM in experiment [4]; 0.9 µM in experiment [5]. In addition, in experiment [6] (72 hours incubation), the GI50 was 0.54 µM.
As to `O=P(O)(O)OC[C@H]1O[C@@H](n2cnc3c(NCc4ccccc4Cl)ncnc32)[C@H](O)[C@@H]1O` [Compound 4, 6-(2-chlorobenzylamino)purine riboside-5′-monophosphate], the GI50 in experiment [1] was above 167 µM; in experiment [2] (72 hours incubation) it was 64 µM; with MCF-7 (breast carcinoma) it was above 167 µM; in experiment [3], above 167 µM; in experiment [5], 14.5 µM; in experiment [6] (72 hours incubation), 1.6 µM. Also, in the experiment on Human lymphocytes, the EC50 was 8.7 µM. Also, the “Activity (%) [10^−5 mol · l^−1 KR = 100%]” value (from here on “Activity (%)”) in [7] came out at 121 ± 4%. For the same compound, the “Concentration with highest activity” value in experiment [7] is 10^−6 mol · l^−1.
Regarding `O=P(O)(O)OC[C@H]1O[C@@H](n2cnc3c(NCc4ccc(O)cc4)ncnc32)[C@H](O)[C@@H]1O` [Compound 23, 6-(4-hydroxybenzylamino)purine riboside-5′-monophosphate], the concentration for 50% growth inhibition (GI50) in experiment [1] is above 167 µM; in [2] (72 hours incubation), above 167 µM; in the experiment on MCF-7 (breast carcinoma) it was above 167 µM; in experiment [3], above 167 µM; in experiment [4] it was above 167 µM; in experiment [5], 39.7 µM. The GI50 in experiment [6] (72 hours incubation) was 9.5 µM.
For the compound `COc1cccc(CNc2ncnc3c2ncn3[C@@H]2O[C@H](COP(=O)(O)O)[C@@H](O)[C@H]2O)c1` [Compound 16, 6-(3-methoxybenzylamino)purine riboside-5′-monophosphate], the GI50 is above 167 µM in [1]; above 167 µM in experiment [2] (72 hours incubation); above 167 µM in the experiment on MCF-7 (breast carcinoma); above 167 µM in experiment [3]; above 167 µM in experiment [4]; 7.6 µM in experiment [5]. In addition, in experiment [6] (72 hours incubation), the GI50 is 4.9 µM. In addition, the “Activity (%)” value in experiment [7] is recorded as 102 ± 1%. In experiment [7], the “Concentration with highest activity” value was 10^−6 mol · l^−1.
With `O=P(O)(O)OC[C@H]1O[C@@H](n2cnc3c(NCc4cc(Cl)ccc4O)ncnc32)[C@H](O)[C@@H]1O` [Compound 47, 6-(2-hydroxy-5-chlorobenzylamino)purine riboside-5′-monophosphate], the GI50 was 10.6 µM in [1]; 15.7 µM in experiment [2] (72 hours incubation); 18 µM with MCF-7 (breast carcinoma); 63.4 µM in experiment [3]; 12.5 µM in [4]; 0.6 µM in experiment [5]. For the same compound, in [6] (72 hours incubation), the GI50 was 0.47 µM.
For `COc1ccccc1CNc1ncnc2c1ncn2[C@@H]1O[C@H](COP(=O)(O)O)[C@@H](O)[C@H]1O` [Compound 15, 6-(2-methoxybenzylamino)purine riboside-5-monophosphate], the 50% growth inhibitory concentration (GI50) is 21.2 µM in experiment [1]; 11.2 µM in experiment [2] (72 hours incubation); above 167 µM in the experiment on MCF-7 (breast carcinoma); above 167 µM in experiment [3]; above 167 µM in [4]; 3.2 µM in [5]. Also, the GI50 in experiment [6] (72 hours incubation) was 2.3 µM. The “Activity (%)” value in [7] stood at 108 ± 1%. The “Concentration with highest activity” value in experiment [7] is listed as 10^−5 mol · l^−1.

These data come from US9073961B2, “Substitution derivatives of N6 -benzyladenosine-5′-monophosphate, methods of preparation thereof, use thereof as medicaments, and therapeutic preparations containing these compounds” (UNIVERZITA PALACKEHO V OLOMOUCI, priority 2010, dated 2015).
